# Experimental data as given in patent US9468661B2, “Pyrrolidine derivatives and their use as complement pathway modulators” (priority 2012, dated 2016).
# Molecular target: human factor D (Homo sapiens (Human), UniProt P00746)
# Test: biochemical
# Format: biochemical
# Conditions: Factor D inhibition data using Method 1; recombinant human factor D 10 nM, substrate Z-Lys-thiobenzyl, fluorescence; read-out: IC50
# Experimental: Human Complement Factor D Assay: Method 1
# Recombinant human factor D (expressed in E. coli and purified using standard methods) at 10 nM concentration is incubated with test compound at various concentrations for 1 hour at room temperature in 0.1 M Hepes buffer, pH 7.5, containing 1 mM MgCl2, 1 M NaCl and 0.05% CHAPS. A synthetic substrate Z-Lys-thiobenzyl and 2,4-dinitrobenzenesulfonyl-fluoresceine are added to final concentrations of 200 μM and 25 μM, respectively. The increase in fluorescence is recorded at excitation of 485 nm and emission at 535 nm in a microplate spectrofluorimeter. IC50 values are calculated from percentage of inhibition of complement factor D-activity as a function of test compound concentration.
# human factor D, sequence (P00746 26-253): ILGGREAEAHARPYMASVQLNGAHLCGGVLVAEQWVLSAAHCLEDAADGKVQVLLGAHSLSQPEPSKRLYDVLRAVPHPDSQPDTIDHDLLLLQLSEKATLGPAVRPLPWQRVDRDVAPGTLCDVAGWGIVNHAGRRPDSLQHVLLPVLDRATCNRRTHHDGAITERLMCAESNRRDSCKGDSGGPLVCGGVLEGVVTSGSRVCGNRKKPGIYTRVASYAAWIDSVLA
row,SMILES,IC50
1,"CC(=O)c1nn(CC(=O)N2[C@@H]3C[C@@H]3C[C@H]2C(=O)NCC2CCCC2(C)C)c2cnccc12 (single isomer, unassigned; dia 1) [Example 19]",1.61 µM
2,"CC(=O)c1nn(CC(=O)N2[C@@H]3C[C@@H]3C[C@H]2C(=O)NC[C@H]2CC2(Cl)Cl)c2ccc(O)cc12 [Example 122, (1R,3S,5R)-2-[2-(3-Acetyl-5-hydroxy-indazol-1-yl)-acetyl]-2-aza-bicyclo[3.1.0]hexane-3-carboxylic acid ((R)-2,2-dichloro-cyclopropylmethyl)-amide]",0.058 µM
3,"CC(=O)c1nn(CC(=O)N2[C@@H]3C[C@@H]3C[C@H]2C(=O)NC[C@H]2CC2(Cl)Cl)c2ccc(OCc3cscn3)cc12 [Example 105, (1R,3S,5R)-2-{2-[3-Acetyl-5-(thiazol-4-ylmethoxy)-indazol-1-yl]-acetyl}-2-aza-bicyclo[3.1.0]hexane-3-carboxylic acid ((R)-2,2-dichloro-cyclopropylmethyl)-amide]",0.014 µM
4,"CC(=O)c1nn(CC(=O)N2[C@@H]3C[C@@H]3C[C@H]2C(=O)N[C@H](CO)C2CCCCC2)c2cnccc12 [Example 9, (1R,3S,5R)-2-[2-(3-Acetyl-pyrazolo[3,4-c]pyridin-1-yl)-acetyl]-2-aza-bicyclo[3.1.0] hexane-3-carboxylic acid ((S)-1-cyclohexyl-2-hydroxy-ethyl)-amide]",0.469 µM
5,"CC(=O)c1nn(CC(=O)N2[C@@H]3C[C@@H]3C[C@H]2C(=O)NCC2CC2)c2ncccc12 [Example 1, (1R,3S,5R)-2-[2-(3-Acetyl-pyrazolo[3,4-b]pyridin-1-yl)-acetyl]-2-aza-bicyclo[3.1.0]hexane-3-carboxylic acid cyclopropylmethyl-amide]",4.79 µM
6,"NC(=O)c1nn(CC(=O)N2[C@@H]3C[C@@H]3C[C@H]2C(=O)NC[C@H]2CC2(Cl)Cl)c2ccccc12 [Example 31, 1-(2-{(1R,3S,5R)-3-[((R)-2,2-Dichloro-cyclopropylmethyl)-carbamoyl]-2-aza-bicyclo[3.1.0]hex-2-yl}-2-oxo-ethyl)-1H-indazole-3-carboxylic acid amide]",0.032 µM
7,"CC(=O)c1nn(CC(=O)N2[C@@H]3C[C@@H]3C[C@H]2C(=O)NCC2CCC3(CCC3)CC2)c2cnccc12 [Example 3, (1R,3S,5R)-2-[2-(3-Acetyl-pyrazolo[3,4-c]pyridin-1-yl)-acetyl]-2-aza-bicyclo[3.1.0] hexane-3-carboxylic acid (spiro[3.5]non-7-ylmethyl)-amide]",1.35 µM
8,"CC(=O)c1nn(CC(=O)N2[C@@H]3C[C@@H]3C[C@H]2C(=O)NCC2CCCCC2(C)C)c2cnccc12 (single isomer, unassigned; dia 1) [Example 21]",0.118 µM
9,"NC(=O)n1cc(NC(=O)N2[C@@H]3C[C@@H]3C[C@H]2C(=O)NCC2CCCCC2)c2ccccc21 [Example 25, (1R,3S,5R)-2-Aza-bicyclo[3.1.0]hexane-2,3-dicarboxylic acid 2-[(1-carbamoyl-1H-indol-3-yl)-amide]3-cyclohexylmethyl-amide]",0.257 µM
10,"CC(=O)c1nn(CC(=O)N2[C@@H]3C[C@@H]3C[C@H]2C(=O)NCC2CC(F)(F)C2)c2ccc(OCc3ncccn3)cc12 [Example 62, (1R,3S,5R)-2-{2-[3-Acetyl-5-(pyrimidin-2-ylmethoxy)-indazol-1-yl]-acetyl}-2-aza-bicyclo[3.1.0] hexane-3-carboxylic acid (3,3-difluoro-cyclobutylmethyl)-amide]",0.162 µM
11,"CC(=O)c1nn(CC(=O)N2[C@@H]3C[C@@H]3C[C@H]2C(=O)NC[C@H]2CC2(Cl)Cl)c2cnccc12 [Example 92, (1R,3S,5R)-2-[2-(3-Acetyl-pyrazolo[3,4-c]pyridin-1-yl)-acetyl]-2-aza-bicyclo[3.1.0] hexane-3-carboxylic acid ((R)-2,2-dichloro-cyclopropylmethyl)-amide]",0.024 µM
12,"Cc1nccc2c(C(N)=O)nn(CC(=O)N3[C@@H]4C[C@@H]4C[C@H]3C(=O)N[C@H](C)[C@H]3CC3(Cl)Cl)c12 [Example 44, 1-(2-{(1R,3S,5R)-3-[(R)-1-((R)-2,2-Dichloro-cyclopropyl)-ethylcarbamoyl]-2-aza-bicyclo[3.1.0]hex-2-yl}-2-oxo-ethyl)-7-methyl-1H-pyrazolo[3,4-c]pyridine-3-carboxylic acid amide]",0.041 µM
13,"Cc1nccc2c(C(N)=O)nn(CC(=O)N3[C@@H]4C[C@@H]4C[C@H]3C(=O)NC[C@H]3CC3(Cl)Cl)c12 [Example 112, 1-(2-{(1R,3S,5R)-3-[((R)-2,2-Dichloro-cyclopropylmethyl)-carbamoyl]-2-aza-bicyclo[3.1.0]hex-2-yl}-2-oxo-ethyl)-7-methyl-1H-pyrazolo[3,4-c]pyridine-3-carboxylic acid amide]",0.188 µM
14,"CC(=O)c1nn(CC(=O)N2[C@@H]3C[C@@H]3C[C@H]2C(=O)NCC2C(C)(C)C2(C)C)c2ncccc12 [Example 2, (1R,3S,5R)-2-[2-(3-Acetyl-pyrazolo[3,4-b]pyridin-1-yl)-acetyl]-2-aza-bicyclo[3.1.0] hexane-3-carboxylic acid (2,2,3,3-tetramethyl-cyclopropylmethyl)-amide]",1.85 µM
15,"CC(=O)c1nn(CC(=O)N2[C@@H]3C[C@@H]3C[C@H]2C(=O)NC[C@@H]2CC2(Cl)Cl)c2ncccc12 [Example 68, (1R,3S,5R)-2-[2-(3-Acetyl-pyrazolo[3,4-b]pyridin-1-yl)-acetyl]-2-aza-bicyclo[3.1.0] hexane-3-carboxylic acid ((S)-2,2-dichloro-cyclopropylmethyl)-amide]",0.177 µM

# Same assay, conditions: IC50, Factor D inhibition data using Method 1; recombinant human factor D 10 nM, substrate Z-Lys-thiobenzyl, fluorescence
row,SMILES,IC50
1,"CC(=O)c1nn(CC(=O)N2[C@@H]3C[C@@H]3C[C@H]2C(=O)NCC2C(C)C2(Cl)Cl)c2ccc(OCc3ncccn3)cc12 (single isomer, unassigned; dia 2) [Example 76, (1R,3S,5R)-2-{2-[3-Acetyl-5-(pyrimidin-2-ylmethoxy)-indazol-1-yl]-acetyl}-2-aza-bicyclo[3.1.0] hexane-3-carboxylic acid ((1R,3R) or (1S,3S)-2,2-dichloro-3-methyl-cyclopropylmethyl)-amide-Dia 2]",0.003 µM
2,"CC1C(CNC(=O)[C@@H]2C[C@H]3C[C@H]3N2C(=O)Cn2nc(C(N)=O)c3ccccc32)C1(Cl)Cl (single isomer, unassigned; dia 1) [Example 77, 1-(2-{(1R,3S,5R)-3-[((1R,3S) or (1S,3R)-2,2-Dichloro-3-methyl-cyclopropylmethyl)-carbamoyl]-2-aza-bicyclo[3.1.0]hex-2-yl}-2-oxoethyl)-1H-indazole-3-carboxylic acid amide-Dia 1]",0.035 µM
3,"CC1C(CNC(=O)[C@@H]2C[C@H]3C[C@H]3N2C(=O)Cn2nc(C(N)=O)c3ccncc32)C1(Cl)Cl (single isomer, unassigned; dia 1) [Example 79, 1-(2-{(1R,3S,5R)-3-[((1R,3S) or (1S,3R)-2,2-Dichloro-3-methyl-cyclopropylmethyl)-carbamoyl]-2-aza-bicyclo[3.1.0]hex-2-yl}-2-oxo-ethyl)-1H-pyrazolo[3,4-c]pyridine-3-carboxylic acid amide-Dia 1]",0.229 µM
4,"CC(=O)c1nn(CC(=O)N2[C@@H]3C[C@@H]3C[C@H]2C(=O)NCC2C(C)C2(Cl)Cl)c2ccc(OCc3ncccn3)cc12 (single isomer, unassigned; dia 2) [Example 109, (1R,3S,5R)-2-{2-[3-Acetyl-5-(pyrimidin-2-ylmethoxy)-indazol-1-yl]-acetyl}-2-aza-bicyclo[3.1.0] hexane-3-carboxylic acid ((1R,3S) or (1S,3R)-2,2-dichloro-3-methyl-cyclopropylmethyl)-amide-Dia 2]",0.049 µM
